Results taken from PubChem BioAssay AID2627 (Broad Institute, 2010).

Target: Alpha-synuclein (Homo sapiens) (UniProt P37840)
Assay: activators of alpha-synuclein protein translation, dose response, Western blot, H4 cells (AID 2627)
Details: alpha-synuclein protein level

- ECmax: 1000 nM
Structure (SMILES): c1ccc2c(Nc3nnc(-c4ccncc4)s3)cccc2c1
